Measured values taken from ChEMBL document CHEMBL4196200 (J Med Chem, 2018).
≈ marks a conversion by molar mass, not a printed value. Calls of active or inactive are those of the source. The rule behind the calls is not given here.

Experiments:
Vasopressin V1a receptor [1] = target: T1, Vasopressin V1a receptor (Homo sapiens, UniProt P37288); assay: Antagonist activity at human V1A receptor expressed in HEK cells assessed as inhibition of AVP-induced intracellular calcium flux incubated for 45 mins by Indo1-AM dye based fluorescence assay relative to AVP; format: functional, cell-based
T1 sequence (P37288 whole entry): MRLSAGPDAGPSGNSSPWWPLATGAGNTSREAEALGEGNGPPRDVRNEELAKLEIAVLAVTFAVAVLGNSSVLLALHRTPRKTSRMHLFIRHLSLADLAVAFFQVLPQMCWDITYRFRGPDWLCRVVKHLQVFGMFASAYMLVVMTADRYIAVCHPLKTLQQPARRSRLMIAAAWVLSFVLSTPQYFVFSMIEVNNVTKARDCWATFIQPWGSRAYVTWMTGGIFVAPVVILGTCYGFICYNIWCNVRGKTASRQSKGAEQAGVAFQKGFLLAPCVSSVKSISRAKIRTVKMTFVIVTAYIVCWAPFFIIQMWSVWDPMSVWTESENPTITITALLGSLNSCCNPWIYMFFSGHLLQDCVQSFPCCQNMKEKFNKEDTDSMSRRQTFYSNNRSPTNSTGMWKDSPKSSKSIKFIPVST

Vasopressin V2 receptor [2] = target: T2, Vasopressin V2 receptor (Homo sapiens, UniProt P30518); assay: Displacement of DY647 from SNAP-tagged V2 receptor (unknown origin) expressed in HEK293 cells by TR-FRET assay; format: cell-based
T2 sequence (P30518 whole entry): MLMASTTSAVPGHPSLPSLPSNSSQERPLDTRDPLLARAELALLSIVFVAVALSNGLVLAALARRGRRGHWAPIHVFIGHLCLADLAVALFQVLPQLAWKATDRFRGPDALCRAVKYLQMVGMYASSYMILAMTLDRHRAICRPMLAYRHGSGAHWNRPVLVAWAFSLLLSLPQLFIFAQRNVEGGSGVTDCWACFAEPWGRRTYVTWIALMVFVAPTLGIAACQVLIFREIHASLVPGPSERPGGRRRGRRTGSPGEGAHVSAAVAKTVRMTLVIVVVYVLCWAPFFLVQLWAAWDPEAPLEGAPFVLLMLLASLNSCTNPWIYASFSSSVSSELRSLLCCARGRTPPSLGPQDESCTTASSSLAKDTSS

Oxytocin receptor [3] = target: T3, Oxytocin receptor (Homo sapiens, UniProt P30559); assay: Displacement of DY647 from SNAP-tagged OTR receptor (unknown origin) expressed in HEK293 cells by TR-FRET assay; format: cell-based
T3 sequence (P30559 whole entry): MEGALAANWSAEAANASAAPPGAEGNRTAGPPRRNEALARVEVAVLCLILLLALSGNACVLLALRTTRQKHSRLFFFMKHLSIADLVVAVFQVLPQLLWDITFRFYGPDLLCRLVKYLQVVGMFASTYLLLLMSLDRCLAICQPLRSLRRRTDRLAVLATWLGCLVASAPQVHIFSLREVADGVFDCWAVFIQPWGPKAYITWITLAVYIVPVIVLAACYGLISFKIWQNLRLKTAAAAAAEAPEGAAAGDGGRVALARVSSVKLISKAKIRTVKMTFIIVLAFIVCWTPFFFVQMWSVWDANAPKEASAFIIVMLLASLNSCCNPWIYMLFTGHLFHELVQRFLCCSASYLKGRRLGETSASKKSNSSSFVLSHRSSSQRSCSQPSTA

Oxytocin receptor [4] = target: T3, Oxytocin receptor; assay: Agonist activity at human OTR expressed in HEK cells assessed as increase in intracellular calcium flux incubated for 45 mins by Indo1-AM dye based fluorescence assay; format: functional, cell-based
Mus musculus [5] = assay: Improvement in social interaction in Oprm1-/- mouse model of autism spectrum disorders assessed as restoration of number of nose contacts at 10 mg/kg, ip pre-treated before open-field test for 10 mins; format: functional, organism-based
Mus musculus [6] = assay: Improvement in social interaction in Oprm1-/- mouse model of autism spectrum disorders assessed as restoration of time spent in nose contacts at 10 mg/kg, ip pre-treated before open-field test for 10 mins; format: functional, organism-based
Mus musculus [7] = assay: Improvement in social interaction in Oprm1-/- mouse model of autism spectrum disorders assessed as restoration of mean duration of nose contacts at 10 mg/kg, ip pre-treated before open-field test for 10 mins; format: functional, organism-based
Mus musculus [8] = assay: Improvement in social interaction in Oprm1-/- mouse model of autism spectrum disorders assessed as restoration of number of following episodes at 10 mg/kg, ip pre-treated before open-field test for 10 mins; format: functional, organism-based
Mus musculus [9] = assay: Effect on social interaction in Oprm1+/+ mouse model of autism spectrum disorders assessed as number of nose contacts at 10 mg/kg, ip pre-treated before open-field test for 10 mins; format: ADME, organism-based; settings: in vivo
Mus musculus [10] = assay: Effect on social interaction in Oprm1+/+ mouse model of autism spectrum disorders assessed as increase in number of following episodes at 10 mg/kg, ip pre-treated before open-field test for 10 mins; format: ADME, organism-based; settings: in vivo
Mus musculus [11] = assay: Improvement in social interaction in Oprm1-/- mouse model of autism spectrum disorders assessed as restoration of number of following episodes at 20 mg/kg, ip pre-treated before open-field test for 10 mins; format: functional, organism-based
[12] = AUC in brain of CD1 mouse at 10 mg/kg, ip measured over 15 mins to 240 mins by UHPLC-MS/MS method; format: ADME, organism-based; design: dose 10 mg/kg, time upper 4 hr, time lower 0.25 hr, route intraperitoneal; settings: in vivo
[13] = Thermodynamic solubility in pH 7.4 buffer; format: physicochemical; settings: read-out: Therm_solubility
[14] = Lipophilicity, log D of the compound; format: physicochemical; settings: octanol/water
Oxytocin receptor [15] = target: T4, Oxytocin receptor (Mus musculus, UniProt P97926); assay: Agonist activity at mouse OTR receptor expressed in HEK293FT cells assessed as stimulation of calcium release by Aequorin based assay; format: functional, cell-based
T4 sequence (P97926 whole entry): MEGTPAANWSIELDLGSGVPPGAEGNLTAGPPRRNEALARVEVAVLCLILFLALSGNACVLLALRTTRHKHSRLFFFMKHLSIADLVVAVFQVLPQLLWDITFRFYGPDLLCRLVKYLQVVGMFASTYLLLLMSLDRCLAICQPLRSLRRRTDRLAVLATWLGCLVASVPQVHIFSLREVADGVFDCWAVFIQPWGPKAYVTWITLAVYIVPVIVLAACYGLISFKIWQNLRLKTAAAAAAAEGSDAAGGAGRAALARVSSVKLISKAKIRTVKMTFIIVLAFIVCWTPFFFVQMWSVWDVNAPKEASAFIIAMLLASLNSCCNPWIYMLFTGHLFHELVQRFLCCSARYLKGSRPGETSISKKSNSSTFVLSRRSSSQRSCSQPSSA

[16] = target: T5, Oxytocin receptor (Mus musculus) (UniProt P97926); assay: Agonist activity at mouse OTR receptor expressed in HEK293FT cells assessed as stimulation of calcium release by Aequorin based assay relative to OT; format: functional, cell-based
T5 sequence (whole entry): T4 sequence (P97926 whole entry)

Vasopressin V2 receptor [17] = target: T2, Vasopressin V2 receptor; assay: Agonist activity at human V2 receptor expressed in HEK293FT cells assessed as stimulation of calcium release by Aequorin based assay relative to AVP; format: functional, cell-based
Vasopressin V1a receptor [18] = target: T1, Vasopressin V1a receptor; assay: Antagonist activity at human V1a receptor expressed in HEK293FT cells assessed as inhibition of AVP-induced response incubated for 30 mins by beta-arrestin recruitment assay; format: functional, cell-based

Cc1cc(C(=O)N2Cc3cnn(C)c3Nc3ccccc32)ccc1CNC(=O)N1CCC[C@H]1C(=S)N(C)C
IC50 (Vasopressin V1a receptor [1]): 100 nM | Ki (Vasopressin V2 receptor [2]): 1670 nM | Ki (Oxytocin receptor [3]): 226 nM | EC50 (Oxytocin receptor [4]): 55 nM | Activity (Mus musculus [5]): Active | Activity (Mus musculus [6]): Active | Activity (Mus musculus [7]): Active | Activity (Mus musculus [8]): Active | Activity (Mus musculus [9]): Toxic | Activity (Mus musculus [10]): Toxic | Activity (Mus musculus [11]): inactive | AUC [12]: 399 ng·min/g | solubility thermodynamic [13]: 680 µM (≈ 362 µg/mL) | logD [14]: 2 | EC50 (Oxytocin receptor [15]): 18 nM | Emax [16]: 96% | Emax (Vasopressin V2 receptor [17]): 101% | IC50 (Vasopressin V1a receptor [18]): 2200 nM
